Drawing on patent publication US10435399B2, “HDAC6 inhibitory heterocyclic compound” (TAKEDA PHARMACEUTICAL COMPANY LIMITED, priority 2017, dated 2019), this text covers inhibition for 26 compounds.

SMILES strings stand for the structures.

In this assay the target is T1, HDAC6 enzyme (Homo sapiens, UniProt Q9UBN7).
T1 construct: transducing full length HDAC6 gene into Sf-9 insect cells; GST; purchased SignalChem; host or cells: Sf-9 insect cells
T1 sequence (Q9UBN7 1-1215): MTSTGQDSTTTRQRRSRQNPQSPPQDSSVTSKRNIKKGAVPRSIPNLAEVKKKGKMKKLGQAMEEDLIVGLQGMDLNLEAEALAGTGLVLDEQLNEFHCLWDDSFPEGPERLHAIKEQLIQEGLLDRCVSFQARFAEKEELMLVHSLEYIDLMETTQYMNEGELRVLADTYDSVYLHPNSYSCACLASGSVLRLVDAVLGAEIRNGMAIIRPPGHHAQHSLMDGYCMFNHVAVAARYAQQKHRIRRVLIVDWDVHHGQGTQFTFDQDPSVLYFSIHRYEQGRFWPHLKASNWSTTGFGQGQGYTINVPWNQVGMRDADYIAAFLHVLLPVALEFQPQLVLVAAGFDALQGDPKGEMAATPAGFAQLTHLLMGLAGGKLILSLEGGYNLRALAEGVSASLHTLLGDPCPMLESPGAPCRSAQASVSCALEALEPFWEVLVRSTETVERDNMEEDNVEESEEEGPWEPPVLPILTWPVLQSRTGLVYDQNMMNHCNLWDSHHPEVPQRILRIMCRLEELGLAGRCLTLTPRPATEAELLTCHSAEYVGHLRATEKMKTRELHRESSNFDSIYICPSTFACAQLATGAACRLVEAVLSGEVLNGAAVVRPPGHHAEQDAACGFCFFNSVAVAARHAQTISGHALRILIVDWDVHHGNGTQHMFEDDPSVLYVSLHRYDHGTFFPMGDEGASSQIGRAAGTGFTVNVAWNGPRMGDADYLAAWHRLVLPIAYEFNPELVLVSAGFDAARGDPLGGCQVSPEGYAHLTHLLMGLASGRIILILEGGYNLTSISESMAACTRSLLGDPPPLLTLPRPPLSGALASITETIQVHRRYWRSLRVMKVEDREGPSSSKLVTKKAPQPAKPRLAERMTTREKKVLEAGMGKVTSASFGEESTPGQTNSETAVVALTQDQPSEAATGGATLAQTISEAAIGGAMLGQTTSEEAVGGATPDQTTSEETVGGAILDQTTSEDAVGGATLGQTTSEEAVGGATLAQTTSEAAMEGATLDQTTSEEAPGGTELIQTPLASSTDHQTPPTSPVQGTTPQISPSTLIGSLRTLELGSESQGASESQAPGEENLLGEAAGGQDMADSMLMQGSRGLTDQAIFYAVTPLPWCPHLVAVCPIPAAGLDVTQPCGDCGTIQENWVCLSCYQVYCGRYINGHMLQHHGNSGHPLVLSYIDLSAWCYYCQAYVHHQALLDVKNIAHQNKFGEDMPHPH
Nature of the assay: HDAC6 enzyme inhibitory activity (HDAC-Glo I/II Assay kit). Format: biochemical. The settings on record: 10 μM; wells without enzyme = 100% inhibition; read-out: HDAC6 inhibitory rate (%) (10 μM). An outline of the steps: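 Luminescent HDAC-Glo I/II readout after 20 min room-temperature reaction with substrate-developer, following 60 min compound–enzyme preincubation. Enzyme: full-length HDAC6 from Sf-9 cells, GST-purified; buffer 24 mM Tris-HCl pH 7.5, 0.01% Tween-20, glutathione, salts. Wells lacking enzyme define 100% inhibition.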
`Cc1cn2cc(-c3ccccc3N3Cc4ccc(-c5nnc(C(F)F)o5)cc4C3=O)ccc2n1` [Example 306, 6-(5-(difluoromethyl)-1,3,4-oxadiazol-2-yl)-2-(2-(2-methylimidazo[1,2-a]-pyridin-6-yl)phenyl)-isoindolin-1-one]: the inhibition at 10 µM amounted to 101%.
Consider `O=C1c2cc(-c3nnc(C(F)F)o3)ccc2CN1c1ccccc1-c1ccc(F)c(F)c1` [Example 307, 2-(3′,4′-difluorobiphenyl-2-yl)-6-(5-(difluoromethyl)-1,3,4-oxadiazol-2-yl)-isoindolin-1-one], for which the inhibition at 10 µM came to 98%.
As to `O=C1c2cc(-c3nnc(C(F)F)o3)ccc2CN1c1ccccc1-c1cccc(F)c1F` [Example 308, 2-(2′,3′-difluorobiphenyl-2-yl)-6-(5-(difluoromethyl)-1,3,4-oxadiazol-2-yl)-isoindolin-1-one], the inhibition at 10 µM amounted to 97%.
With `O=C1c2cc(-c3nnc(C(F)F)o3)ccc2CN1c1ccccc1-c1cc(F)ccc1F` [Example 309, 2-(2′,5′-difluorobiphenyl-2-yl)-6-(5-(difluoromethyl)-1,3,4-oxadiazol-2-yl)isoindolin-1-one] the figure was 97%; with `O=C1c2cc(-c3nnc(C(F)F)o3)ccc2CN1c1ccccc1-c1ccc(F)cc1F` [Example 310, 2-(2′,4′-difluorobiphenyl-2-yl)-6-(5-(difluoromethyl)-1,3,4-oxadiazol-2-yl)isoindolin-1-one], 91%; with `Cc1ccccc1-c1ccccc1N1Cc2ccc(-c3nnc(C(F)F)o3)cc2C1=O` [Example 311, 6-(5-(difluoromethyl)-1,3,4-oxadiazol-2-yl)-2-(2′-methyl-biphenyl-2-yl)isoindolin-1-one], 99%.
For the compound `Cc1cccc(-c2ccccc2N2Cc3ccc(-c4nnc(C(F)F)o4)cc3C2=O)c1` [Example 312, 6-(5-(difluoromethyl)-1,3,4-oxadiazol-2-yl)-2-(3′-methyl-biphenyl-2-yl)isoindolin-1-one], the inhibition at 10 µM came to 96%.
For the compound `Cc1ccc(-c2ccccc2N2Cc3ccc(-c4nnc(C(F)F)o4)cc3C2=O)cc1` [Example 313, 6-(5-(difluoromethyl)-1,3,4-oxadiazol-2-yl)-2-(4′-methyl-biphenyl-2-yl)isoindolin-1-one], the inhibition at 10 µM turned out to be 98%.
For the compound `CS(=O)(=O)c1cncc(-c2ccccc2N2Cc3ccc(-c4nnc(C(F)F)o4)cc3C2=O)c1` [Example 314, 6-(5-(difluoromethyl)-1,3,4-oxadiazol-2-yl)-2-(2-(5-(methylsulfonyl)pyridin-3-yl)phenyl)isoindolin-1-one], the inhibition at 10 µM was 101%.
In the case of `O=C1c2cc(-c3nnc(C(F)F)o3)ccc2CN1c1ccccc1-c1cccc(OCC(F)(F)F)c1` [Example 315, 6-(5-(difluoromethyl)-1,3,4-oxadiazol-2-yl)-2-(3′-(2,2,2-trifluoroethoxy)biphenyl-2-yl)isoindolin-1-one], the inhibition at 10 µM turned out to be 98%.
For `N#CC1(c2ccc(-c3ccccc3N3Cc4ccc(-c5nnc(C(F)F)o5)cc4C3=O)cc2)CC1` [Example 316, 1-(2′-(6-(5-(difluoromethyl)-1,3,4-oxadiazol-2-yl)-1-oxo-1,3-dihydro-2H-isoindol-2-yl)-biphenyl-4-yl)cyclopropane-carbonitrile], the inhibition at 10 µM stood at 92%.
Regarding `COCCOc1ccccc1-c1ccccc1N1Cc2ccc(-c3nnc(C(F)F)o3)cc2C1=O` [Example 317, 6-(5-(difluoromethyl)-1,3,4-oxadiazol-2-yl)-2-(2′-(2-methoxyethoxy)biphenyl-2-yl)isoindolin-1-one], the inhibition at 10 µM was found to be 97%.
Then `O=C1c2cc(-c3nnc(C(F)F)o3)ccc2CN1c1ccccc1-c1cnn(C(F)F)c1` [Example 318, 6-(5-(difluoromethyl)-1,3,4-oxadiazol-2-yl)-2-(2-(1-(difluoromethyl)-1H-pyrazol-4-yl)phenyl)isoindolin-1-one], with 98%; and `O=C1c2cc(-c3nnc(C(F)F)o3)ccc2CN1c1ccccc1-c1cnn(C2CCOCC2)c1` [Example 319, 6-(5-(difluoromethyl)-1,3,4-oxadiazol-2-yl)-2-(2-(1-(tetrahydro-2H-pyran-4-yl)-1H-pyrazol-4-yl)phenyl)-isoindolin-1-one], with 86%.
In the case of `Cn1nc(C(F)(F)F)cc1-c1ccccc1N1Cc2ccc(-c3nnc(C(F)F)o3)cc2C1=O` [Example 320, 6-(5-(difluoromethyl)-1,3,4-oxadiazol-2-yl)-2-(2-(1-methyl-3-(trifluoromethyl)-1H-pyrazol-5-yl)phenyl)-isoindolin-1-one], the inhibition at 10 µM stood at 99%.
Take `COCCOc1ccc(-c2ccccc2N2Cc3ccc(-c4nnc(C(F)F)o4)cc3C2=O)cc1` [Example 321, 6-(5-(difluoromethyl)-1,3,4-oxadiazol-2-yl)-2-(4′-(2-methoxyethoxy)biphenyl-2-yl)isoindolin-1-one]: the inhibition at 10 µM amounted to 98%.
Turning to `O=C1c2cc(-c3nnc(C(F)F)o3)ccc2CN1c1ccccc1-c1cnc(OCC(F)(F)F)nc1` [Example 322, 6-(5-(difluoromethyl)-1,3,4-oxadiazol-2-yl)-2-(2-(2-(2,2,2-trifluoroethoxy)-pyrimidin-5-yl)phenyl)-isoindolin-1-one], the inhibition at 10 µM worked out at 23%.
As to `O=C1c2cc(-c3nnc(C(F)F)o3)ccc2CN1c1ccccc1-c1cnn(Cc2ccccn2)c1` [Example 323, 6-(5-(difluoromethyl)-1,3,4-oxadiazol-2-yl)-2-(2-(1-(pyridin-2-ylmethyl)-1H-pyrazol-4-yl)phenyl)-isoindolin-1-one], the inhibition at 10 µM is 97%.
Turning to `N#CCOc1cccc(-c2ccccc2N2Cc3ccc(-c4nnc(C(F)F)o4)cc3C2=O)c1` [Example 324, ((2′-(6-(5-(difluoromethyl)-1,3,4-oxadiazol-2-yl)-1-oxo-1,3-dihydro-2H-isoindol-2-yl)biphenyl-3-yl)oxy)-acetonitrile], the inhibition at 10 µM was determined as 97%.
Consider `O=C(c1cccc(-c2ccccc2N2Cc3ccc(-c4nnc(C(F)F)o4)cc3C2=O)c1)N1CCCC1` [Example 325, 6-(5-(difluoromethyl)-1,3,4-oxadiazol-2-yl)-2-(3′-(pyrrolidin-1-ylcarbonyl)-biphenyl-2-yl)isoindolin-1-one], for which the inhibition at 10 µM turned out to be 100%.
As for `O=C1c2cc(-c3nnc(C(F)F)o3)cc(F)c2CN1C[C@@H]1CCCN1` [Example 326, 6-(5-(difluoromethyl)-1,3,4-oxadiazol-2-yl)-4-fluoro-2-((2S)-pyrrolidin-2-ylmethyl)-isoindolin-1-one], the inhibition at 10 µM worked out at 86%.
With `O=C1c2cc(-c3nnc(C(F)F)o3)cnc2CN1Cc1cccc(F)c1F` [Example 327, 6-(2,3-difluorobenzyl)-3-(5-(difluoromethyl)-1,3,4-oxadiazol-2-yl)-6,7-dihydro-5H-pyrrolo[3,4-b]pyridin-5-one], the inhibition at 10 µM worked out at 99%.
With `O=C1c2cc(-c3nnc(C(F)F)o3)cnc2CN1Cc1ccc(F)cc1` [Example 328, 3-(5-(difluoromethyl)-1,3,4-oxadiazol-2-yl)-6-(4-fluorobenzyl)-6,7-dihydro-5H-pyrrolo[3,4-b]pyridin-5-one], the inhibition at 10 µM was found to be 98%.
For the compound `O=C1c2cc(-c3nnc(C(F)F)o3)cnc2CN1Cc1c(F)cccc1F` [Example 329, 6-(2,6-difluorobenzyl)-3-(5-(difluoromethyl)-1,3,4-oxadiazol-2-yl)-6,7-dihydro-5H-pyrrolo[3,4-b]pyridin-5-one], the inhibition at 10 µM is 99%.
As for `O=C1c2cc(-c3nnc(C(F)F)o3)ccc2CN1c1ccccc1-n1cccn1` [Example 330, 6-(5-(difluoromethyl)-1,3,4-oxadiazol-2-yl)-2-(2-(1H-pyrazol-1-yl)phenyl)-isoindolin-1-one], the inhibition at 10 µM is 99%.
For the compound `CC(C)(C)OC(=O)N1CC(F)(F)C[C@H]1CN1Cc2c(F)cc(-c3nnc(C(F)F)o3)cc2C1=O` [Example 331, tert-butyl (2S)-2-((6-(5-(difluoromethyl)-1,3,4-oxadiazol-2-yl)-4-fluoro-1-oxo-1,3-dihydro-2H-isoindol-2-yl)methyl)-4,4-difluoropyrrolidine-1-carboxylate], the inhibition at 10 µM stood at 97%.
